Assay [1] deals with T1, D2R (D2 dopamine receptor; HA-hDRD2-SmBiT) (Homo sapiens, UniProt P14416). Put plainly: competition with [3H]-raclopride, membranes.
Assay [2] addresses T1, D2R (D2 dopamine receptor; HA-hDRD2-SmBiT). Description: competition with [3H]-raclopride, membranes. The source holds these as a separate data set.

Each structure is given as a SMILES string. Like-named read-outs stand apart in the source and are kept apart here.

T1 sequence (P14416 whole entry): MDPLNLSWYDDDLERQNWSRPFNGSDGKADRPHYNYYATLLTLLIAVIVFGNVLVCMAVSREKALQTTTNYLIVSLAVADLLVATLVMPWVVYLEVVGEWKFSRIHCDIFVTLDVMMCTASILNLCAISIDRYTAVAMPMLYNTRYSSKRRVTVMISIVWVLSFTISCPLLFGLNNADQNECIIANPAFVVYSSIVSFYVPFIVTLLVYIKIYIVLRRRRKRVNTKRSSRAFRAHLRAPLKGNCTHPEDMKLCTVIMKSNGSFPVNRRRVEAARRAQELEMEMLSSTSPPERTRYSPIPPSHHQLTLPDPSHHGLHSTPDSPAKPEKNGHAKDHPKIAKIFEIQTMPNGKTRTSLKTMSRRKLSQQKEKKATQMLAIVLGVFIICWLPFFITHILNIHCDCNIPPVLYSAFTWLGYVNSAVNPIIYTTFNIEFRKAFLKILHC

With `CNC[C@H](O)c1ccc(O)c(O)c1` [adrenaline], the Ki in assay [1] is 7.08 µM.
Same read-out and setting: in the case of `NCC(O)c1ccccc1` (stereo not drawn) [hydroxyphenethylamine] it was 195 µM.
Consider `NCCc1cccc(O)c1` [m-tyramine], for which the Ki in assay [2] is 1.86 µM.
For `CNCCc1ccc(O)c(O)c1` [methyldopamine], the Ki in assay [1] was 0.0603 µM.
Same read-out and setting: in the case of `CNCCc1ccccc1` [n-methyl-phenetylamine] it was 17 µM.
As for `NC[C@H](O)c1ccc(O)c(O)c1` [noradrenaline], the Ki in assay [2] is 9.55 µM.
In assay [1], `NCC(O)c1cccc(O)c1` (stereo not drawn) [norphenylephrine] showed a Ki of 17 µM.
The same measure, in the same setting: under `NC[C@H](O)c1ccc(O)cc1` [octopamine] stands 347 ± 60.1 µM.
In assay [2], `NCCc1ccc(O)cc1` [p-tyramine] gave a Ki of 77.6 µM.
In assay [1] (pH 7.4, RT, 10 mM MgCl2, orthosteric), `NCCc1ccccc1` [phenetylamine] displayed a Ki of 4.73 ± 0.52 pKi.
`CNC[C@H](O)c1cccc(O)c1` [phenhyleprine]: the Ki in assay [1] was 15.1 µM.
Same read-out and setting: under `CNCC(O)c1ccc(O)cc1` (stereo not drawn) [synephrine] stands 87.1 µM.
